This note sets out measurements from PubChem BioAssay (NCI).

SMILES strings stand for the structures.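 All cell lines were grown in 96-well plates and treated with compound for 48 hours. TGI denotes the concentration required for complete inhibition of growth.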 Some results are limits rather than exact numbers.

Common to all, as to assay: NCI-60 cell line screen, 48 h
Assay [1] concerns A549 NSCLC.
Assay [2] has as its system DU-145 prostate.
Assay [3] concerns HOP-62 NSCLC.
The subject of assay [4] is HS 578T breast.
The test system of assay [5] is IGROV1 ovarian.
Assay [6] has as its system M14 melanoma.
The test system of assay [7] is MCF7 breast.
The test system of assay [8] is MDA-MB-435.
In assay [9] the test system is MDA-N.
The test system of assay [10] is NCI/ADR-RES ovarian.
Assay [11] relates to OVCAR-4 ovarian.
Assay [12] deals with OVCAR-5 ovarian.
In assay [13] the test system is OVCAR-8 ovarian.
In assay [14] the test system is PC-3 prostate.
In assay [15] the test system is RPMI-8226 leukemia.
Assay [16] has as its system SK-MEL-2 melanoma.
Assay [17] relates to SK-MEL-28 melanoma.
Assay [18] concerns SNB-75 CNS.
For assay [19], the system named is SR leukemia.
Assay [20] concerns U251 CNS.

For `O=C(O)CCC(NC(=O)c1ccc(Nc2cnc3ccc(C(F)(F)F)cc3n2)cc1)C(=O)O` (stereo not given), the TGI in [1], in [2], in assay [3], in assay [4], in assay [5] and in assay [6] was above 100 µM each time. Also, the TGI in [7], in assay [8], in assay [9], in assay [10], in [11] and in assay [12] was above 100 µM in each case. Besides, the TGI in assay [13], in assay [14], in [15], in assay [16], in assay [17] and in assay [18] was above 100 µM throughout. The TGI in assay [19] and in [20] was above 100 µM in each case.

`O=c1[nH]/c(=C/c2ccc(OCc3ccccc3)cn2)c(=O)[nH]/c1=C/c1ccc(Cl)cc1`: the TGI was above 100 µM in assay [1]; above 100 µM in assay [2]; 47.8 µM in assay [3]; 2.68 µM in assay [4]; above 100 µM in [5]; above 100 µM in assay [6]. The TGI in assay [7] is above 100 µM; in [8] it was 0.796 µM; in assay [9], 0.723 µM; in assay [10] it was above 100 µM; in [11], above 100 µM; in [12], above 100 µM. For the same compound, the TGI was above 100 µM in [13]; above 100 µM in [14]; above 100 µM in [15]; above 100 µM in [16]; above 100 µM in [17]; 25.2 µM in assay [18]. Further, the TGI in assay [19] was 4.53 µM; in [20], above 100 µM.

As for `CCCc1c(O)c(=O)c2c(OC)cc(OC)c3c4c(OC)cc(OC)c5c(=O)c(O)c(CCC)c(c1c23)c54`, the TGI in assay [1] worked out at 13.1 µM; in assay [2], 3.73 µM; in assay [3], 8.11 µM; in assay [4], 72.2 µM; in [5], 3.97 µM; in [6], 8.65 µM. In addition, the TGI stood at 15.3 µM in assay [7]; 10.4 µM in [8]; 12.2 µM in assay [9]; 3.55 µM in assay [10]; 14.1 µM in assay [11]; 19.4 µM in assay [12]. The TGI worked out at 3.38 µM in [13]; 18.2 µM in assay [14]; 1.11 µM in assay [15]; 8.71 µM in assay [16]; 19.1 µM in assay [17]; 3.53 µM in assay [18]. Besides, the TGI in assay [19] stood at 0.463 µM; in [20] it was 11.3 µM.

Take `c1ccc(-c2ccc(-c3cc4ccccc4[nH]3)cc2)cc1`: the TGI in assay [1], in assay [2], in assay [3], in assay [4], in [5] and in assay [6] was above 100 µM in each case. For the same compound, the TGI in [7], in assay [8], in assay [9], in assay [10], in assay [11] and in [12] was above 100 µM each time. For the same compound, the TGI in [13], in assay [14], in assay [15], in assay [16], in [17] and in assay [18] was above 100 µM each time. Further, the TGI in assay [19] and in assay [20] was above 100 µM each time.

With `CCCCCCCCCCCCCCCCCCNc1ccn(C2OC(CO)C(O)C2O)c(=O)n1` (stereo not given), the TGI in assay [1] is above 100 µM; in assay [2], above 100 µM; in assay [3], above 100 µM; in assay [4], above 100 µM; in [5] it was above 92.2 µM; in [6], above 100 µM. In addition, the TGI in assay [7], in assay [8], in assay [9], in assay [10], in assay [11] and in assay [12] was above 100 µM each time. For the same compound, the TGI in assay [13] was above 100 µM; in assay [14], above 89.1 µM; in [15], above 100 µM; in assay [16] it was above 100 µM; in assay [17], above 100 µM; in assay [18], above 100 µM. Also, the TGI in assay [19] and in assay [20] was above 100 µM throughout.
